# Measured values from patent publication US11135145B2 (priority 2015, dated 2021).
# Values joined by “and” are separate entries in the source; they are usually repeats but may differ in a detail not shown here. Equal entries are not always repeated. Where two headings read alike, the source gives them in different places.
# How the values were obtained:
# [1] = system: NQO-1 antioxidant response element (NQO-1 - ARE); assay: NQO-1-ARE luciferase reporter HepG2 cell line; assay type: cell-based, human; conditions: for NQO-1—ARE transcription in HepG2 cells (in words): 5 μM; for NQO-1 - ARE transcription, normalised to positive control (blank = 0%, 10 μM trans-resveratrol = 100%): 5 μM single compound; for NQO-1 - ARE transcription, normalised to positive control (blank = 0%, 10 μM trans-resveratrol = 100%) / NQO-1 - ARE transcription, normalised to positive control: HepG2, 6 hours, n = 3, ± SD
# Description: A pGL4.22[luc2CP/puro] reporter vector containing NQO-1-ARE was transfected into the HepG2 cell line according to the method set forth in Xue et al (Biochem J 443: 213-222, (2012)). Transfected HepG2 cells were selected with puromycin (1 μg/ml). After culture for 3 weeks, puromycin-resistant cells were screened for luciferase activity after treatment with 4 μM sulforaphane for 6 hours. After validation of positive clones by measuring luciferase activity, the NQO-1-ARE stable cell line was expanded in selection media.
# (§1) Stable transfectant cell line was incubated with and without test compounds for 6 hours in MEM with 10% fetal calf serum and 2 mM glutamine under an atmosphere of 5% CO2 in air, 100% humidity and 37° C. For the reporter assay, 100 μl Cell Culture Lysis Reagent (CCLR, Promega) was added to cell and shaken gently for 30 minutes. The mixture of cell lysate was centrifuged (12,000 g, 5 minutes, 4° C.) and an aliquot (20 μl) of supernatant used in the reporter assay. The luciferase activity was determined using a Luciferase Assay System (Promega). The luciferase response is given in Relative Light Units (RLU).
# (§2) These were produced by transfection of a pGL4.22[luc2CP/puro] reporter vector containing NQO1-ARE or GLO1-ARE into the HepG2 cell line. Transfected HepG2 cells were selected with puromycin (1 μg/ml). After culture for 3 weeks, puromycin-resistant cells were screened for luciferase activity after treatment with 4 μM SFN for 6 h. After validation of positive clones by measuring luciferase activity, the stable cell line was expanded in selection media and thereafter used in studies for screening of bioactive compounds and synergism. Stable transfectant cell lines were incubated with and without bioactive compounds and combination of tRES and HESP (0.625-5.0 μM) for 6 h in MEM medium with 10% fetal calf serum and 2 mM glutamine under an atmosphere of 5% CO2 in air, 100% humidity and 37° C. This incubation period was optimum to judge initial rate of increase in transcriptional response in cells treated with compounds without increase in untreated controls. For the reporter assay, 100 μl Cell Culture Lysis Reagent (CCLR, Promega, Southampton, UK) was added to cell and shaken gently for 30 min. The mixture of cell lysate was centrifuged (12,000 g, 5 min, 4° C.) and an aliquot (20 μl) of supernatant used in the reporter assay. The luciferase activity was determined using a Luciferase Assay System (Promega). The luciferase response is given in Relative Light Units (RLU). Data are corrected for blank response and normalised to the highest effect (100%) achieved with 10 μM tRES. Data of normalised responses (blank=0%, 10 μM tRES=100%) for varied bioactive concentrations are fitted by non-linear regression to a dose-response curve, E=Emax×[Bioactive]^n/(EC50^n+[Bioactive]^n), solving for EC50 and n (logistic regression coefficient—also called the Hill coefficient). Nrf2-dependent transcriptional response was verified by siRNA silencing of Nrf2, as described in Xue et al., Biochem J 443, 213-222 (2012).
# HO-1 mRNA = assay: HO-1 (HMOX1) mRNA by digital mRNA profiling (NanoString nCounter); assay type: cell-based; conditions: human dermal foreskin BJ fibroblasts; 5 μM of each compound; 12 hours; n = 3; ± SD
# Description: (§3) Human dermal foreskin BJ fibroblasts at cumulative population doubling of 22 were purchased from the European Collection of Animal Cell Cultures (Porton Down, UK). They were cultured in Eagle's Minimum Essential Medium (MEM) with 10% fetal calf serum and 2 mM glutamine under an atmosphere of 5% CO2 in air, 100% humidity and 37° C.
# NQO-1 mRNA = NQO-1 mRNA by digital mRNA profiling (NanoString nCounter); assay type: cell-based; conditions: human dermal foreskin BJ fibroblasts; 5 μM of each compound; 12 hours; n = 3; ± SD
# Description: as §3
# [2] = system: glyoxalase 1 antioxidant response element (GLO1-ARE); assay: Stable transfectant GLO1-ARE luciferase reporter HepG2 cell line; assay type: cell-based, human; conditions: for GLO1-ARE transcription, normalised to positive control (blank = 0%, 10 μM trans-resveratrol = 100%): 5 μM single compound; for GLO1-ARE transcription, normalised to positive control (blank = 0%, 10 μM trans-resveratrol = 100%) / GLO1-ARE transcription, normalised to positive control: 6 hours, n = 3, ± SD; for Emax / EC50: Homo sapiens; for Emax: 10 μM tRES = 100%
# Description: A pGL4.22[luc2CP/puro] reporter vector containing GLO1-ARE was transfected into the HepG2 cell line according to the method set forth in Xue et al. (Biochem. J., 443, 213-222 (2012)). Transfected HepG2 cells were selected with puromycin (1 μg/ml). After culture for 3 weeks, puromycin-resistant cells were screened for luciferase activity after treatment with 4 μM sulforaphane for 6 hours. After validation of positive clones by measuring luciferase activity, the GLO1-ARE stable cell line, R1F3, was expanded in selection media.
# as §1, with “line R1F3” for “line”
# as §2
# human BJ fibroblasts = assay: Cytotoxicity in human BJ fibroblasts in primary culture; assay type: cell-based; conditions: for toxicity (cytotoxicity): individually or with 5 μM combination with primary bioactive compound, concentrations ≤20 μM
# Description: Primary human aortal endothelial cells (HAEC) were purchased from Lonza (Slough, U.K). HAEC cells were grown in proprietary large vessel endothelial cell basal media supplemented with large vessel endothelial cell growth supplement (containing hydrocortisone, human epidermal growth factor, human fibroblast growth factor with heparin and in 2% (/v/) FBS), 25 μg/ml gentamicin and 50 ng/ml amphotericin B. Human dermal foreskin BJ fibroblasts at cumulative population doubling of 22 were purchased from the European Collection of Animal Cell Cultures (Porton Down, UK). They were cultured in MEM medium with 10% fetal calf serum and 2 mM glutamine under an atmosphere of 5% CO2 in air, 100% humidity and 37° C.
# [3] = system: matrix metalloproteinase-3 protein (MMP); assay: Cellular MMP-3 protein marker; assay type: cell-based, human; conditions: BJ fibroblasts; 5 μM
# GSH = assay: Cellular GSH content; assay type: cell-based, human; conditions: HAECs, BJ fibroblasts and HepG2 cells; 5 μM single compound
# [4] = system: oxidised glutathione (GSSG); assay: Cellular GSSG content; assay type: cell-based, human; conditions: HAECs, BJ fibroblasts and HepG2 cells; 5 μM single compound
# ICAM1 mRNA = assay: ICAM1 mRNA, focused quantitative mRNA profiling; assay type: cell-based, human; conditions: HAECs
# [5] = HATFF study: total urinary metabolites of tRES and HESP (LC-MS/MS); assay type: in vivo, human; conditions: urine
# [6] = dietary supplement of 150 mg HESP (Takumi et al.); cited from earlier work
# [7] = reviewed in Vang et al. and Parhiz et al.; cited from earlier work
# [8] = patients with type 2 diabetes; 1.7 g metformin per day; cited from earlier work
# NQO-1 gene expression = conditions: WO 2014/095289 Example 4; cited from earlier work
# HO-1 gene expression = conditions: WO 2014/095289 Example 4; cited from earlier work
# human hair follicle = conditions: WO 2014/095289 Example 3; cited from earlier work
# [9] = compound alone, HepG2 reporter, 6 h, read-out: EC50 for GLO1-ARE transcriptional response
smiles,measurement,setting,value
"O=C1CC(c2ccc(O)c(O)c2)Oc2cc(O)cc(O)c21 (stereo not drawn) [Eriodictyol, 2-(3,4-Dihydroxyphenyl)-5,7-dihydroxy-4-chromanone]",NQO-1—ARE transcription in HepG2 cells (in words),[1],up-regulate
same,"NQO-1 - ARE transcription, normalised to positive control (blank = 0%, 10 μM trans-resveratrol = 100%)",[1],95.3 ± 14.7%
"COc1ccc(C2CC(=O)c3c(O)cc(O)cc3O2)cc1O (stereo not drawn) [hesperetin, 2,3-Dihydro-5,7-dihydroxy-2-(3-hydroxy-4-methoxyphenyl)-4H-1-benzopyran-4-one]",HO-1 mRNA (relative mRNA copy numbers as a % of vehicle control),HO-1 mRNA,95.4 ± 3.7 % of vehicle control
same,NQO-1 mRNA (relative mRNA copy numbers as a % of vehicle control),NQO-1 mRNA,93.0 ± 3.5 % of vehicle control
same,"GLO1-ARE transcription, normalised to positive control (blank = 0%, 10 μM trans-resveratrol = 100%)",[2]; HepG2,13.0 ± 1.6%
same,"logistic regression coefficient n, GLO1-ARE response",[2]; HESP alone,2.01±0.02
same,Emax,"[2]; HepG2, compound alone",24.4 ± 0.1%
same,EC50,[2]; [9],0.59 ± 0.01 µM
same,"NQO-1 - ARE transcription, normalised to positive control (blank = 0%, 10 μM trans-resveratrol = 100%)",[1],7.9 ± 0.7%
same,toxicity (cytotoxicity),human BJ fibroblasts; BJ fibroblasts,no toxicity
same,viability of BJ cells in vitro,human BJ fibroblasts; HESP (40 μM) with and without 5 μM tRES,minor decrease
same,cellular MMP-3 protein,[3],increase
same,cellular level of GSH,GSH,did not change
same,cellular level of GSSG,[4],did not change
same,ICAM1 mRNA,"ICAM1 mRNA; 5 μM HESP individually, 6 h post-treatment",tended to increased
same,eriodictyol (demethylated HESP) in study samples,[5],"no eriodctyol (demethylated HESP), was detected"
same,peak plasma concentration of HESP,[6],6.7 µM
same,safety assessments (tolerability),[7],highly tolerated
Oc1ccc(/C=C/c2cc(O)cc(O)c2)cc1 [trans-resveratrol],"GLO1-ARE transcription, normalised to positive control","[2]; 0.625 μM trans-resveratrol, 0 μM hesperetin, HepG2",4.0 ± 2.2%
same,"GLO1-ARE transcription, normalised to positive control","[2]; 1.25 μM trans-resveratrol, 0 μM hesperetin, HepG2",19.2 ± 7.6%
same,"GLO1-ARE transcription, normalised to positive control","[2]; 2.5 μM trans-resveratrol, 0 μM hesperetin, HepG2",53.8 ± 7.4%
same,"GLO1-ARE transcription, normalised to positive control (blank = 0%, 10 μM trans-resveratrol = 100%)",[2]; HepG2,67.6 ± 14.5%
same,"GLO1-ARE transcription, normalised to positive control","[2]; 10 μM trans-resveratrol, 0 μM hesperetin (positive control = 100%), HepG2",100.0 ± 2.9%
same,predicted increase of GLO1-ARE transcriptional response,[2]; 0.1-1.0 tRES in the presence of 5 μM HESP,3-79 fold
same,increased GLO1-ARE transcriptional response over additive effects,"[2]; 0.1-1.0 tRES in the presence of 5 μM HESP, predicted",up to 79%
same,"Emax of tRES, GLO1-ARE response",[2]; 0.625-10 μM tRES with 5 μM HESP,maintaining the Emax
same,EC50,"[2]; HepG2, 0.625-10 μM tRES with 5 μM HESP, read-out: EC50 of tRES for GLO1-ARE transcriptional response",1.46 ± 0.1 µM
same,Emax,"[2]; HepG2, compound alone",100 ± 8.9%
same,EC50,[2]; [9],2.52 ± 0.19 µM
same,"NQO-1 - ARE transcription, normalised to positive control","[1]; 0.625 μM trans-resveratrol, 0 μM hesperetin",1.9 ± 8.6%
same,"NQO-1 - ARE transcription, normalised to positive control","[1]; 1.25 μM trans-resveratrol, 0 μM hesperetin",6.4 ± 2.5%
same,"NQO-1 - ARE transcription, normalised to positive control","[1]; 2.5 μM trans-resveratrol, 0 μM hesperetin",15.7 ± 6.7%
same,"NQO-1 - ARE transcription, normalised to positive control (blank = 0%, 10 μM trans-resveratrol = 100%)",[1],58.0 ± 2.5% and 56.9 ± 1.7%
same,"NQO-1 - ARE transcription, normalised to positive control","[1]; 10 μM trans-resveratrol, 0 μM hesperetin (positive control = 100%)",100.0 ± 10.0%
same,toxicity (cytotoxicity),human BJ fibroblasts; BJ fibroblasts,no toxicity
same,cell number,"human BJ fibroblasts; tRES (5 μM) with 0.625 μM HESP, BJ fibroblasts",minor increase
same,viability of BJ cells in vitro,human BJ fibroblasts; tRES (40 μM) with 5 μM HESP,minor decrease
same,cellular MMP-3 protein,[3],decreases
same,cellular level of GSH,GSH,did not change
same,cellular level of GSSG,[4],did not change
same,ICAM1 mRNA,"ICAM1 mRNA; 5 μM tRES individually, 48 h post-treatment",tended to increased
"COc1cc(/C=C/c2ccc(O)cc2)cc(OC)c1 [Pterostilbene, pterostilbene]","GLO1-ARE transcription, normalised to positive control (blank = 0%, 10 μM trans-resveratrol = 100%)",[2]; HepG2,37.5 ± 18.3%
same,"NQO-1 - ARE transcription, normalised to positive control (blank = 0%, 10 μM trans-resveratrol = 100%)",[1],41.8 ± 2.7%
"Oc1cc(O)cc(/C=C/c2ccc(O)c(O)c2)c1 [Piceatannol, piceatannol]","GLO1-ARE transcription, normalised to positive control (blank = 0%, 10 μM trans-resveratrol = 100%)",[2]; HepG2,61.3 ± 31.0%
same,"NQO-1 - ARE transcription, normalised to positive control (blank = 0%, 10 μM trans-resveratrol = 100%)",[1],66.6 ± 2.4%
CN(C)C(=N)N=C(N)N [metformin],ΔOGIS,[8],+54 mlmin^−1m^−2
C[S+]([O-])CCCCN=C=S (stereo not drawn) [sulforaphane],NQO-1 gene expression in human hair follicles,NQO-1 gene expression,significantly up-regulates
same,HO-1 gene expression in human hair follicles,HO-1 gene expression,significantly up-regulates
same,human hair follicle growth,human hair follicle,significantly up-regulates
"O=C1C[C@@H](c2ccc(O)cc2)Oc2cc(O)cc(O)c21 [Naringenin, naringenin, reference compound]",NQO-1—ARE transcription in HepG2 cells (in words),[1],does not up-regulate
same,"NQO-1 - ARE transcription, normalised to positive control (blank = 0%, 10 μM trans-resveratrol = 100%)",[1],−2.75 ± 5.24%
